# According to publication PMC8296573, “Synthesis and Biological Evaluation of Fingolimod Derivatives as Antibacterial Agents” (ACS Omega, 2021):
# Where two headings read alike, the source gives them in different places.
# Tests used:
# P. aeruginosa ATCC 9027 = assay: Antibacterial activity, pre-exposure; type: cell-based, Pseudomonas aeruginosa; conditions: for Average inhibition %, biofilms viability / Average inhibition %, planktonic cells viability / inhibition at 50 µM / inhibition at 100 µM / inhibition at 150 µM / inhibition at 200 µM: P. aeruginosa ATCC 9027, pre-exposure, ± SD; for inhibition at 50 µM / inhibition at 100 µM / inhibition at 150 µM / inhibition at 200 µM: Pseudomonas aeruginosa, ATCC9027
# How it was run: (§1)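 Growth prevention was tested by adding compounds together with the inoculum. Plates were incubated 18 h at 37 °C. Viability was read by resazurin fluorescence and biomass by crystal violet absorbance at 595 nm.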
# S. aureus ATCC 25923 [1] = assay: Antibacterial activity, post-exposure on preformed 18-h-old biofilms; type: cell-based, Staphylococcus aureus; conditions: ± SD; for inhibition at 25 µM / inhibition at 50 µM / inhibition at 100 µM / inhibition at 200 µM: Staphylococcus aureus; for inhibition at 25 µM: ATCC25923, 25 µM; for inhibition at 50 µM: ATCC25923, 50 µM; for inhibition at 100 µM: ATCC25923, 100 µM; for inhibition at 200 µM: ATCC25923, 200 µM
# How it was run: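 Biofilms grown 18 h without compound, medium then replaced and compound added for a further 24 h. Planktonic OD and resazurin (20 μM final) fluorescence (ex 560/em 590 nm) read; washed biofilms stained with 20 μM resazurin 30 min at 37 °C, then ethanol-fixed and crystal violet-stained, absorbance 595 nm.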
# S. aureus ATCC 25923 [2] = assay: Antibacterial activity, pre-exposure (planktonic cells and biofilm formation); type: cell-based, Staphylococcus aureus; conditions: for MIC / inhibition at 5 µM / inhibition at 10 µM / inhibition at 15 µM / inhibition at 25 µM: Staphylococcus aureus, ATCC25923; for inhibition at 5 µM / inhibition at 10 µM / inhibition at 15 µM / inhibition at 25 µM / Average inhibition %, biofilms viability / Average inhibition %, planktonic cells viability: pre-exposure, ± SD
# How it was run: as §1
# A. baumannii NCTC 13423 = assay: Antibacterial activity, pre-exposure; type: cell-based, Acinetobacter baumannii; conditions: for Average inhibition %, biofilms viability / Average inhibition %, planktonic cells viability / inhibition at 10 µM / inhibition at 15 µM / inhibition at 25 µM / inhibition at 50 µM: A. baumannii NCTC 13423, pre-exposure, ± SD; for inhibition at 10 µM / inhibition at 15 µM / inhibition at 25 µM / inhibition at 50 µM: Acinetobacter baumannii, NCTC13423
# How it was run: as §1
# [3] = 50 µM, read-out: Average inhibition %, biofilms biomass
# [4] = 50 µM, read-out: Average inhibition %, planktonic cells turbidity
# [5] = read-out: Average inhibition %, biofilms biomass
# [6] = read-out: Average inhibition %, planktonic cells turbidity
# [7] = 10 µM, read-out: Average inhibition %, biofilms biomass
# [8] = 10 µM, read-out: Average inhibition %, planktonic cells turbidity
# [9] = 15 µM, read-out: Average inhibition %, biofilms biomass
# [10] = 15 µM, read-out: Average inhibition %, planktonic cells turbidity
# [11] = 25 µM, read-out: Average inhibition %, biofilms biomass
# [12] = 25 µM, read-out: Average inhibition %, planktonic cells turbidity
smiles,measurement,setting,value
"CCCCCCCCCCc1ccc(CCC(N)(CO)CO)cc1 [Compound 11, 2-Amino-2-(4-decylphenethyl)propane-1,3-diol]","Average inhibition %, biofilms viability",P. aeruginosa ATCC 9027; 50 µM,0 ± 0%
same,"Average inhibition %, planktonic cells viability",P. aeruginosa ATCC 9027; 50 µM,26.2 ± 4.1%
same,"Average inhibition %, biofilms viability",P. aeruginosa ATCC 9027; 100 µM,0 ± 0%
same,"Average inhibition %, planktonic cells viability",P. aeruginosa ATCC 9027; 100 µM,6.4 ± 11.1%
same,"Average inhibition %, biofilms viability",P. aeruginosa ATCC 9027; 150 µM,0 ± 0%
same,"Average inhibition %, planktonic cells viability",P. aeruginosa ATCC 9027; 150 µM,10.3 ± 9.3%
same,"Average inhibition %, biofilms viability",P. aeruginosa ATCC 9027; 200 µM,0 ± 0%
same,"Average inhibition %, planktonic cells viability",P. aeruginosa ATCC 9027; 200 µM,1.2 ± 2%
same,inhibition at 50 µM,P. aeruginosa ATCC 9027; [3],8.3 ± 5.9%
same,inhibition at 50 µM,P. aeruginosa ATCC 9027; [4],22.2 ± 20.1%
same,inhibition at 100 µM,"P. aeruginosa ATCC 9027; 100 µM, read-out: Average inhibition %, biofilms biomass",13 ± 13.3%
same,inhibition at 100 µM,"P. aeruginosa ATCC 9027; 100 µM, read-out: Average inhibition %, planktonic cells turbidity",20.4 ± 17.1%
same,inhibition at 150 µM,"P. aeruginosa ATCC 9027; 150 µM, read-out: Average inhibition %, biofilms biomass",12.1 ± 11.1%
same,inhibition at 150 µM,"P. aeruginosa ATCC 9027; 150 µM, read-out: Average inhibition %, planktonic cells turbidity",7.6 ± 5.1%
same,inhibition at 200 µM,"P. aeruginosa ATCC 9027; 200 µM, read-out: Average inhibition %, biofilms biomass",3.1 ± 4.2%
same,inhibition at 200 µM,"P. aeruginosa ATCC 9027; 200 µM, read-out: Average inhibition %, planktonic cells turbidity",13.4 ± 11.7%
same,MIC P. aeruginosa ATCC 9027,"P. aeruginosa ATCC 9027; pre-exposure, Inactive = no activity up to 200 μM, > = some inhibition but no MIC reached",Inactive
same,"Average inhibition %, biofilms viability",S. aureus ATCC 25923 [1]; 25 µM,10.2 ± 8.5%
same,"Average inhibition %, planktonic cells viability",S. aureus ATCC 25923 [1]; 25 µM,0 ± 0%
same,"Average inhibition %, biofilms viability",S. aureus ATCC 25923 [1]; 50 µM,17.5 ± 9%
same,"Average inhibition %, planktonic cells viability",S. aureus ATCC 25923 [1]; 50 µM,0 ± 0%
same,"Average inhibition %, biofilms viability",S. aureus ATCC 25923 [1]; 100 µM,24.8 ± 10.2%
same,"Average inhibition %, planktonic cells viability",S. aureus ATCC 25923 [1]; 100 µM,6 ± 10.4%
same,"Average inhibition %, biofilms viability",S. aureus ATCC 25923 [1]; 200 µM,25.8 ± 8.3%
same,"Average inhibition %, planktonic cells viability",S. aureus ATCC 25923 [1]; 200 µM,30.5 ± 9.5%
same,inhibition at 25 µM,S. aureus ATCC 25923 [1]; [5],32.6 ± 5.1%
same,inhibition at 25 µM,S. aureus ATCC 25923 [1]; [6],8.9 ± 8.2%
same,inhibition at 50 µM,S. aureus ATCC 25923 [1]; [5],35.4 ± 2.7%
same,inhibition at 50 µM,S. aureus ATCC 25923 [1]; [6],14 ± 4.2%
same,inhibition at 100 µM,S. aureus ATCC 25923 [1]; [5],48.9 ± 4.7%
same,inhibition at 100 µM,S. aureus ATCC 25923 [1]; [6],16.2 ± 8.6%
same,inhibition at 200 µM,S. aureus ATCC 25923 [1]; [5],47.6 ± 7.1%
same,inhibition at 200 µM,S. aureus ATCC 25923 [1]; [6],22.2 ± 12.7%
same,Initial screening result (active = at least 60% inhibition of planktonic cells and biofilm formation),"S. aureus ATCC 25923 [2]; 50 μM, S. aureus",active
same,MIC,"S. aureus ATCC 25923 [2]; lowest concentration with no visible growth (>90% inhibition of turbidity and viability of planktonic cells), 18 h, read-out: MIC S. aureus ATCC 25923",10 to 15 µM
same,inhibition at 5 µM,"S. aureus ATCC 25923 [2]; 5 µM, read-out: Average inhibition %, biofilms biomass",40.1 ± 36.6%
same,inhibition at 5 µM,"S. aureus ATCC 25923 [2]; 5 µM, read-out: Average inhibition %, planktonic cells turbidity",12.5 ± 12.4%
same,inhibition at 10 µM,S. aureus ATCC 25923 [2]; [7],75.6 ± 20.8%
same,inhibition at 10 µM,S. aureus ATCC 25923 [2]; [8],70.4 ± 40%
same,inhibition at 15 µM,S. aureus ATCC 25923 [2]; [9],87.1 ± 9.9%
same,inhibition at 15 µM,S. aureus ATCC 25923 [2]; [10],97.5 ± 1.9%
same,inhibition at 25 µM,S. aureus ATCC 25923 [2]; [11],89 ± 0.7%
same,inhibition at 25 µM,S. aureus ATCC 25923 [2]; [12],97.9 ± 1.2%
same,MIC,S. aureus ATCC 25923 [2]; read-out: MIC (S. aureus),10 to 15 µM
same,"Average inhibition %, biofilms viability",S. aureus ATCC 25923 [2]; 5 µM,41.8 ± 9.7%
same,"Average inhibition %, planktonic cells viability",S. aureus ATCC 25923 [2]; 5 µM,17 ± 23.3%
same,"Average inhibition %, biofilms viability",S. aureus ATCC 25923 [2]; 10 µM,72.2 ± 23.8%
same,"Average inhibition %, planktonic cells viability",S. aureus ATCC 25923 [2]; 10 µM,73.3 ± 34.2%
same,"Average inhibition %, biofilms viability",S. aureus ATCC 25923 [2]; 15 µM,84.9 ± 24.9%
same,"Average inhibition %, planktonic cells viability",S. aureus ATCC 25923 [2]; 15 µM,98.5 ± 1.7%
same,"Average inhibition %, biofilms viability",S. aureus ATCC 25923 [2]; 25 µM,93.8 ± 10.1%
same,"Average inhibition %, planktonic cells viability",S. aureus ATCC 25923 [2]; 25 µM,99.2 ± 1.3%
same,"Average inhibition %, biofilms viability",A. baumannii NCTC 13423; 10 µM,0 ± 0%
same,"Average inhibition %, planktonic cells viability",A. baumannii NCTC 13423; 10 µM,11.8 ± 6%
same,"Average inhibition %, biofilms viability",A. baumannii NCTC 13423; 15 µM,0.8 ± 1.4%
same,"Average inhibition %, planktonic cells viability",A. baumannii NCTC 13423; 15 µM,13.2 ± 6.7%
same,"Average inhibition %, biofilms viability",A. baumannii NCTC 13423; 25 µM,3.6 ± 5.6%
same,"Average inhibition %, planktonic cells viability",A. baumannii NCTC 13423; 25 µM,10.3 ± 9%
same,"Average inhibition %, biofilms viability",A. baumannii NCTC 13423; 50 µM,21.4 ± 1.1%
same,"Average inhibition %, planktonic cells viability",A. baumannii NCTC 13423; 50 µM,0.1 ± 0.1%
same,inhibition at 10 µM,A. baumannii NCTC 13423; [7],5.1 ± 8.9%
same,inhibition at 10 µM,A. baumannii NCTC 13423; [8],0%
same,inhibition at 15 µM,A. baumannii NCTC 13423; [9],0%
same,inhibition at 15 µM,A. baumannii NCTC 13423; [10],0%
same,inhibition at 25 µM,A. baumannii NCTC 13423; [11],5.1 ± 4.6%
same,inhibition at 25 µM,A. baumannii NCTC 13423; [12],0%
same,inhibition at 50 µM,A. baumannii NCTC 13423; [3],15.9 ± 13.8%
same,inhibition at 50 µM,A. baumannii NCTC 13423; [4],0%
same,MIC A. baumannii NCTC 13423,"A. baumannii NCTC 13423; pre-exposure, Inactive = no activity up to 50 μM, > = some inhibition but no MIC reached",Inactive ^d
